Laboratory results taken from publication PMC6430017, “Structural and chemical insights into the covalent-allosteric inhibition of the protein kinase Akt” (Chemical Science, 2019).
Like-named read-outs stand apart in the source and are kept apart here.

What was measured:
[1] = system: KU-19-19; test: Cell viability assay (CellTiter-Glo); type: cell-based; settings: Homo sapiens, read-out: Cell viability assay EC50
Description: Cell Culture and Viability Assay
(§1) analysis, cells were plated on day 0 into white 384-well cell culture plates (Greiner Bio-One) using a
(§2) Multidrop reagent dispenser (Thermo) at cell numbers that ensure linear and optimal luminescent
(§3) signal intensity (AN3-CA: 800 cells/well; BT-474: 400 cells/well; Dan-G: 400 cells/well; HPAF-II: 400
(§4) cells/well). Then the cells were incubated for 24 h in a humidified atmosphere at 37 °C/5 % CO2. The
(§5) cells were treated with inhibitors in serial dilutions ranging from 30 µM down to 0.1 nM using an Echo
(§6) 520 acoustic liquid handler (Labcyte Inc.). Cell viability was analysed on day 5 using the CellTiter-Glo
(§7) assay (Promega) as per manufacturer’s instructions. Luminescence signal was recorded by an EnVision
(§8) Multilabel 2104 Plate Reader (PerkinElmer) with 500 ms integration time. All data were normalized to
(§9) the plate positive control (30 µM staurosporine) and negative control (DMSO). Finally, the data was
(§10) processed with the Quattro Software Suite using a four parameter logistic model. As a quality control,
(§11) the Z’-factor was calculated from 16 positive and negative control values. Only assay results showing
(§12) a Z’-factor ≥ 0.5 were used for further analysis. All experimental points were measured in duplicates
(§13) for each plate and were replicated in at least three times.

[2] = system: BT-474; test: Cell viability assay (CellTiter-Glo); type: cell-based; settings: Homo sapiens, read-out: Cell viability assay EC50
Description: Cell Culture and Viability Assay
as §1, §2, §3, §4, §5, §6, §7, §8, §9, §10, §11, §12, §13

[3] = system: AN3CA; test: Cell viability assay (CellTiter-Glo); type: cell-based; settings: Homo sapiens, AN3-CA, 120 h, read-out: Cell viability assay EC50
Description: Cell Culture and Viability Assay
as §1, §2, §3, §4, §5, §6, §7, §8, §9, §10, §11, §12, §13

[4] = system: ZR-75-1; test: Cell viability assay (CellTiter-Glo); type: cell-based; settings: Homo sapiens, read-out: Cell viability assay EC50
Description: Cell Culture and Viability Assay
as §1, §2, §3, §4, §5, §6, §7, §8, §9, §10, §11, §12, §13

[5] = biological target: T1, full-length Akt (Akt^wt) (Homo sapiens, UniProt P31749); test: HTRF KinEASE activity-based assay, IC50 determination; type: biochemical; settings: for IC50: HTRF KinEASE
Description: (§14) The biochemical inhibitory activity (IC50) was determined with the HTRF KinEASE assay from Cisbio as
(§15) previously described.1 All reagents for HTRF experiments were purchased from Cisbio Bioassays,
(§16) France. The measurements were analyzed using the Quattro Software Suite for IC50-determination.
(§17) Time-dependent IC50-measurements were performed as described. Briefly, IC50 values were
(§18) determined for twelve different incubation times and afterwards plotted versus accordingly. Data was
(§19) analyzed according to literature procedure.2

[6] = biological target: T1, full-length Akt (Akt^wt); test: Kinetic characterization by time-dependent IC50 measurements; type: biochemical; settings: from time-dependent IC50
Description: as §14, §15, §16, §17, §18, §19

[7] = Phase I metabolic stability assay; settings: human
Description: (§20) For this purpose, we used a microsomal stability assay that is a good predictor for phase I metabolic stability.[50]
(§21) Metabolic stability under oxidative conditions was determined by LCMS-based measuring of
(§22) degradation of compounds at 3 µM in human and murine liver microsomes over 60 minutes at 37 °C
(§23) Calculating the compound half-life t1/2, the in vitro intrinsic clearance CLint is

[8] = system: MCF-7; test: Cell viability assay (CellTiter-Glo); type: cell-based; settings: Homo sapiens, MCF7, 120 h, read-out: Cell viability assay EC50
Description: Cell Culture and Viability Assay
as §1, §2, §3, §4, §5, §6, §7, §8, §9, §10, §11, §12, §13

[9] = system: T47D; test: Cell viability assay (CellTiter-Glo); type: cell-based; settings: Homo sapiens, 120 h, read-out: Cell viability assay EC50
Description: Cell Culture and Viability Assay
as §1, §2, §3, §4, §5, §6, §7, §8, §9, §10, §11, §12, §13

[10] = in vitro; settings: human, microsomes
Description: as §20, §21, §22, §23

[11] = 120 h, KU-19-19 (bladder), day 5

T1 sequence (P31749 whole entry): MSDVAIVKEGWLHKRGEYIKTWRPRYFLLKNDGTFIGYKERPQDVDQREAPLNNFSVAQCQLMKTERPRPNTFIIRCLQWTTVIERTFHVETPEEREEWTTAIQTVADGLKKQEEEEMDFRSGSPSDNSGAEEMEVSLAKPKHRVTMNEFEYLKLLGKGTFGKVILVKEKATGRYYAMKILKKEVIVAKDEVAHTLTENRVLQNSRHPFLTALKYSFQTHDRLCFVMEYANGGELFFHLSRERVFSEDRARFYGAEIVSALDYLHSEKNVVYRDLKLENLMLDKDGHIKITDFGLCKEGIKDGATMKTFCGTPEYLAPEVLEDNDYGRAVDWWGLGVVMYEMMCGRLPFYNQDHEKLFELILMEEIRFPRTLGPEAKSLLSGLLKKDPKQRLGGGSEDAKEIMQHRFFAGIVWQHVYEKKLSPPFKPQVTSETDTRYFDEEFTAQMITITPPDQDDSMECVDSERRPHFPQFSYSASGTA

Row | SMILES | EC50 ([2]; 120 h, BT-474 (breast), day 5) | IC50 [5] | Ki [6] | kinact [6] | kinact/KI [6] | half-life at 1 h, 3 µM ([7]; liver microsomes) | microsomal CLint at 3 µM ([7]; liver microsomes) | EC50 ([8]; MCF-7 (breast), day 5) | EC50 ([9]; T47D (breast), day 5) | EC50 [1, 11] | EC50 ([3]; AN3CA (endometrium), day 5) | EC50 ([4]; 120 h, ZR-75-1 (breast), day 5) | other results
1 | COc1cccc2c1C(=O)c1c(O)c3c(c(O)c1C2=O)C[C@@](O)(C(=O)CO)C[C@@H]3O[C@H]1C[C@H](N)[C@H](O)[C@H](C)O1 [Doxorubicin, reference compound] | 623 ± 134 nM |  |  |  |  |  |  | 153 ± 9 nM | 127 ± 40 nM | 72 ± 8 nM | 30 ± 9 nM | 100 ± 26 nM | 
2 | C=CC(=O)Nc1ccc2[nH]c(=O)n(C3CCN(Cc4ccc(-c5nc6cc[nH]c(=O)c6cc5-c5ccccc5)cc4)CC3)c2c1 [compound 1, borussertib] |  |  |  |  |  |  |  |  |  |  |  |  | EC50 ([1]; KU-19-19, 120 h): 7770 ± 641 nM; EC50 ([2]; BT-474, 120 h): 373 ± 54 nM; half-life at 1 h, 3 µM ([7]; microsomes): 99 min; microsomal CLint at 3 µM ([7]; microsomes): 5 µL/min/mg; EC50 [8]: 277 ± 90 nM
3 | C=CC(=O)Nc1cc2c(cc1Cl)[nH]c(=O)n2C1CCN(Cc2ccc(-c3nc4cc[nH]c(=O)c4cc3-c3ccccc3)cc2)CC1 [24a] | 259 ± 68 nM | 1.2 ± 0.3 nM |  |  |  |  |  | 138 ± 81 nM | 25 ± 7 nM | 2310 ± 908 nM | 159 ± 70 nM | 2 nM | half-life at 1 h, 3 µM [10]: 87 min; microsomal CLint at 3 µM [10]: 5 µL/min/mg
4 | C=CC(=O)Nc1ccc(N2CCN(Cc3ccc(-c4nc5cc[nH]c(=O)c5cc4-c4ccccc4)cc3)CC2)cc1 [compound 31] | 4620 ± 1060 nM |  |  |  |  |  |  | 1220 ± 58 nM | 832 ± 81 nM |  | 3610 ± 1290 nM | 116 ± 16 nM | 
5 | CN(C)C/C=C/C(=O)Nc1ccc2[nH]c(=O)n(C3CCN(Cc4ccc(-c5nc6cc[nH]c(=O)c6cc5-c5ccccc5)cc4)CC3)c2c1 [24c] |  | 18.1 ± 4.9 nM | 33 ± 2.4 nM | 0.000833 s⁻¹ | 25000 ± 5000 M⁻¹ s⁻¹ |  |  |  | 2110 ± 49 nM | > 30000 nM |  | 427 ± 23 nM | fold loss in inhibitory activity (IC50) compared to 1 [5]: 20 fold
6 | CC(C)NC[C@@H](C(=O)N1CCN(c2ncnc3c2[C@H](C)C[C@H]3O)CC1)c1ccc(Cl)cc1 [Ipatasertib, reference compound] |  |  |  |  |  | 39 min | 12 µL/min/mg |  |  |  |  |  | EC50 ([2]; BT-474, 120 h): 2370 ± 745 nM; EC50 [3]: 925 ± 457 nM; EC50 ([4]; ZR-75-1, 120 h): 219 ± 83 nM; EC50 [8]: 5040 ± 1830 nM; EC50 ([9]; T47D): 443 ± 6 nM
7 | NC1(C(=O)N[C@@H](CCO)c2ccc(Cl)cc2)CCN(c2ncnc3[nH]ccc23)CC1 [Capivasertib, reference compound] | 1600 ± 450 nM |  |  |  |  | 33 min | 14 µL/min/mg | 555 nM |  |  |  |  | 
8 | C=CC(=O)Nc1cccc(CNC2CCN(Cc3ccc(-c4nc5cc[nH]c(=O)c5cc4-c4ccccc4)cc3)CC2)c1 [compound 32] | 4020 ± 912 nM | 192 ± 45 nM | 327 ± 27 nM | 0.00118 s⁻¹ | 4000 ± 1000 M⁻¹ s⁻¹ |  |  | 2200 ± 125 nM | 1900 ± 578 nM | 6760 ± 1460 nM | 3290 ± 298 nM | 384 ± 62 nM | 

Now from value to molecule, other results behind:

Row | EC50 ([2]; 120 h, BT-474 (breast), day 5) | IC50 [5] | Ki [6] | kinact [6] | kinact/KI [6] | half-life at 1 h, 3 µM ([7]; liver microsomes) | microsomal CLint at 3 µM ([7]; liver microsomes) | EC50 ([8]; MCF-7 (breast), day 5) | EC50 ([9]; T47D (breast), day 5) | SMILES | EC50 [1, 11] | EC50 ([3]; AN3CA (endometrium), day 5) | EC50 ([4]; 120 h, ZR-75-1 (breast), day 5) | other results
9 | 621 ± 85 nM | 3.7 ± 0.7 nM | 7.6 ± 1.1 nM | 0.0013 s⁻¹ | 168000 ± 25000 M⁻¹ s⁻¹ | 39 min | 12 µL/min/mg | 224 ± 88 nM | 179 ± 30 nM | C=CC(=O)Nc1cc(Br)cc(C(=O)NC2CCN(Cc3ccc(-c4nc5cc[nH]c(=O)c5cc4-c4ccccc4)cc3)CC2)c1 [30e] | 6440 ± 1240 nM | 568 ± 106 nM | 10 ± 3 nM | 
10 | 1100 ± 212 nM | 14 ± 6.1 nM | 39.3 ± 6.6 nM | 0.00147 s⁻¹ | 38000 ± 7000 M⁻¹ s⁻¹ | 39 min | 12 µL/min/mg | 1190 ± 518 nM | 183 ± 52 nM | C=CC(=O)Nc1ccc(C(=O)NC2CCN(Cc3ccc(-c4nc5cc[nH]c(=O)c5cc4-c4ccccc4)cc3)CC2)s1 [30f] | 3060 ± 848 nM | 879 ± 223 nM | 33 ± 9 nM | 
11 | 1680 ± 316 nM |  |  |  |  | 347 min | 1 µL/min/mg |  |  | NC1(c2ccc(-c3nc4ccn5c(=O)[nH]nc5c4cc3-c3ccccc3)cc2)CCC1 [MK-2206, reference compound] | 7050 ± 421 nM |  | 63 ± 21 nM | 
12 | 2270 ± 700 nM | 10.8 ± 2.5 nM | 27.2 ± 4.2 nM | 0.0023 s⁻¹ | 85000 ± 18000 M⁻¹ s⁻¹ |  |  | 1020 ± 621 nM | 41 ± 19 nM | C=CC(=O)Nc1ccccc1C(=O)NC1CCN(Cc2ccc(-c3nc4cc[nH]c(=O)c4cc3-c3ccccc3)cc2)CC1 [30a] | 5540 ± 1510 nM | 1330 ± 60 nM | 22 ± 7 nM | 
13 | 5210 ± 1890 nM | 285 ± 65 nM | 362 ± 74 nM | 0.0007 s⁻¹ | 2000 ± 1000 M⁻¹ s⁻¹ |  |  | 2840 ± 685 nM | 1360 ± 454 nM | C=CC(=O)Nc1ccc(C(=O)NC2CCN(Cc3ccc(-c4nc5cc[nH]c(=O)c5cc4-c4ccccc4)cc3)CC2)cc1 [30c] |  | 3470 ± 1690 nM | 151 ± 47 nM | 
14 | 1960 ± 391 nM | 52.8 ± 16.3 nM | 98.6 ± 10 nM | 0.00142 s⁻¹ | 14000 ± 2000 M⁻¹ s⁻¹ |  |  | 2440 ± 1020 nM | 546 ± 87 nM | C=CC(=O)Nc1ccc(C(=O)NC2CCN(Cc3ccc(-c4nc5cc[nH]c(=O)c5cc4-c4ccccc4)cc3)CC2)c(F)c1 [30d] | 6070 ± 1100 nM | 1310 ± 158 nM | 73 ± 25 nM | 
